Assay results taken from US11884686B2, “Chelate compounds” (priority 2016, dated 2024).

What was measured:
[1] = In vitro proton relaxivity in human serum; type: physicochemical; conditions: 60 MHz, 40° C.
Experimental: Both the longitudinal and transverse relaxation times were measured in human serum (BioreclamationIVT, Cat #HMSRM-M) to reflect the efficiency of the Mn(II) based chelates in an environment close to physiological. The relaxivity assessment was carried out at a concentration ranging from 5 to 0 mM Mn(II), at 40° C. using a Minispec Mq benchtop NMR relaxometer (Bruker Instruments, Rheinstetten, Germany) operating at 60 MHz (1.4 T) with an inversion recovery pulse sequence. The longitudinal and transverse relaxivities of the complexes (e.g., r1 and r2 respectively) were calculated by plotting the reciprocal of their relaxation time versus the manganese concentration as determined via ICP-MS (Spectro Arcos FHS12, S/N 10003910 or S/N 12006120) for each Mn(II) based chelates. The dependence of T1 by B0 (i.e., magnetic field) applied was assessed via the acquisition of ^1H Nuclear Magnetic Relaxation Dispersion (NMRD) profiles. A dedicated Stelar SMARTracer Fast Field Cycling relaxometer (0.01-10 MHz) and a Bruker WP80 NMR electromagnet adapted to variable field measurements (20-80 MHz) and controlled by a SMARTracer PC-NMR console was used to record the ^1H NMRD profiles over an extended range of Larmor Frequencies (from 0.01 to 80 MHz). The temperature was monitored by a VTC91 temperature control unit and maintained by a gas flow. The temperature was determined by previous calibration with a Pt resistance temperature probe. High field relaxivities were measured on a Bruker AVANCE NMR spectrometer at 400 MHz. A total of 25 data points per NMRD profile were recorded at each temperature, pH 6.9 and with a manganese concentration in the samples of 6.99, 6.78 and 4.45 mM for the prior art Mn Chelate, Mn Chelate 4 and Mn Chelate 3, respectively. The concentration of Mn(II) in all samples was verified by Bulk Magnetic Susceptibility (BMS) measurements. Relaxivity was computed by subtracting the relaxation rate of the medium (distilled water) from the relaxation rate of the Mn(II) complex solution at each field strength and dividing the difference by the manganese concentration verified by BMS measurements.
The linear fit (R2>0.99 for all compounds examined) of 1/T1 and 1/T2 as a function of Mn concentration generated the r1 or r2 values reported in Table 4 for human serum.

[2] = Water solubility of Mn(II) based chelates; type: physicochemical; conditions: thermodynamic from solid, 25° C.
Experimental: The solubility of Mn(II) based chelates was confirmed by dissolving purified Mn(II) based chelates ( 99% purity) in a prescribed volume of solvent (Millipore water 18.2 MegaOhm from a Millipore BioCell Benchtop unit) to provide a solution of given volume. Solutions were visually inspected for homogeneity and filtered through a 0.45 um PTFE filter membrane if necessary. The assessment was carried out at 25° C. Final sample concentrations were confirmed by determination of final Mn(II) concentration via ICP-MS (Spectro Arcos FHS[…] 10003910 or S/N 12006120).

Row | Compound | r1 (longitudinal relaxivity) [1] | solubility [2]
1 | CN1CCN2Cc3cccc(n3)CN(CC1)C(CCC(=O)NC[C@H](O)[C@@H](O)[C@H](O)[C@H](O)CO)C(=O)[O][Mn][O]C(=O)C2CCC(=O)NC[C@H](O)[C@@H](O)[C@H](O)[C@H](O)CO (stereo partly shown) [Mn Chelate 5] | 5.2 mM⁻¹ s⁻¹ | > 500 mM
2 | CN1CCN2Cc3cccc(n3)CN(CC1)C(CC(=O)NC[C@H](O)[C@@H](O)[C@H](O)[C@H](O)CO)C(=O)[O][Mn][O]C(=O)C2CC(=O)NC[C@H](O)[C@@H](O)[C@H](O)[C@H](O)CO (stereo partly shown) [Mn Chelate 5a] | 3.7 mM⁻¹ s⁻¹ | > 500 mM
3 | CN1CCN2Cc3cccc(n3)CN(CC1)C(CCC(=O)Nc1cc(C(=O)NCC(O)CO)cc(C(=O)NCC(O)CO)c1)C(=O)[O][Mn][O]C(=O)C2CCC(=O)Nc1cc(C(=O)NCC(O)CO)cc(C(=O)NCC(O)CO)c1 (stereo not shown) [Mn Chelate 7] | 6.0 mM⁻¹ s⁻¹ | > 500 mM
4 | CN1CCN2Cc3cccc(n3)CN(CC1)C(CCC(=O)N(CCO)CCO)C(=O)[O][Mn][O]C(=O)C2CCC(=O)N(CCO)CCO (stereo not shown) [Mn Chelate 9] | 4.3 mM⁻¹ s⁻¹ | > 500 mM
5 | CN1CCN2Cc3cccc(n3)CN(CC1)C(CCC(=O)NCC(O)CO)C(=O)[O][Mn][O]C(=O)C2CCC(=O)NCC(O)CO (stereo not shown) [Mn Chelate 10] | 4.3 mM⁻¹ s⁻¹ | > 500 mM
6 | CN1CCN2Cc3cccc(n3)CN(CC1)C(CC(=O)NCC(O)CO)C(=O)[O][Mn][O]C(=O)C2CC(=O)NCC(O)CO (stereo not shown) [Mn Chelate 10a] | 3.8 mM⁻¹ s⁻¹ | > 500 mM
7 | CN1CCN2Cc3cccc(n3)CN(CC1)C(CCC(=O)NC(CO)(CO)CO)C(=O)[O][Mn][O]C(=O)C2CCC(=O)NC(CO)(CO)CO (stereo not shown) [Mn Chelate 11] | 4.6 mM⁻¹ s⁻¹ | –
